Where two headings read alike, the source gives them in different places.
Legend:
[1] = system: glyphosate resistant Conyza canadensis (L.) (ERICA), horseweed; assay: Postemergence herbicide evaluation, growth of Conyza canadensis (ERICA); type: in vivo; details: Erigeron canadensis, post-emergence
[2] = system: weeds ABUTH, AMATA, AMBEL, CHEAL, ERICA; assay: Postemergence herbicide evaluation, overall average % weed control (ABUTH, AMATA, AMBEL, CHEAL, ERICA); type: in vivo; details: post-emergence, read-out: Overall Ave % Weed Control
[3] = system: Abutilon theophrasti (ABUTH), velvetleaf; assay: Postemergence herbicide evaluation, growth of Abutilon theophrasti (ABUTH); type: in vivo; details: Abutilon theophrasti, post-emergence
[4] = system: Ambrosia artemisiifolia (AMBEL), common ragweed; assay: Postemergence herbicide evaluation, growth of Ambrosia artemisiifolia (AMBEL); type: in vivo; details: Ambrosia artemisiifolia, post-emergence
[5] = system: Chenopodium album (CHEAL), common lambsquarters; assay: Postemergence herbicide evaluation, growth of Chenopodium album (CHEAL); type: in vivo; details: Chenopodium album, post-emergence
[6] = Volatility of compounds measured by thermogravimetric analysis (TGA); type: physicochemical
[7] = system: Amaranthus rudis (AMATA), tall water hemp; assay: Postemergence herbicide evaluation, growth of Amaranthus rudis (AMATA); type: in vivo; details: Amaranthus tuberculatus, post-emergence
[8] = system: weeds (ABUTH, AMATA, AMBEL, CHEAL, ERICA); assay: Postemergence herbicide evaluation, overall average % weed control across ABUTH, AMATA, AMBEL, CHEAL, ERICA; type: in vivo; details: post-emergence, average over the five weeds, read-out: Overall Ave % Weed Control; for pest or weed control at 280 g/ha: 280 g ae/ha; for pest or weed control at 560 g/ha: 560 g ae/ha
[9] = 168 h, read-out: Ave. ERICA, percent reduction in plant size relative to the untreated control
[10] = 336 h, read-out: Ave. ERICA, percent reduction in plant size relative to the untreated control
[11] = 504 h, read-out: Ave. ERICA, percent reduction in plant size relative to the untreated control
[12] = 168 h, read-out: AVE. ABUTH, percent reduction in plant size relative to the untreated control
[13] = 336 h, read-out: AVE. ABUTH, percent reduction in plant size relative to the untreated control
[14] = 504 h, read-out: AVE. ABUTH, percent reduction in plant size relative to the untreated control
[15] = 168 h, read-out: AVE. AMBEL, percent reduction in plant size relative to the untreated control
[16] = 336 h, read-out: AVE. AMBEL, percent reduction in plant size relative to the untreated control
[17] = 504 h, read-out: AVE. AMBEL, percent reduction in plant size relative to the untreated control
[18] = 168 h, read-out: Ave. CHEAL, percent reduction in plant size relative to the untreated control
[19] = 336 h, read-out: Ave. CHEAL, percent reduction in plant size relative to the untreated control
[20] = 504 h, read-out: Ave. CHEAL, percent reduction in plant size relative to the untreated control
[21] = 168 h, read-out: Ave. AMATA, percent reduction in plant size relative to the untreated control
[22] = 336 h, read-out: Ave. AMATA, percent reduction in plant size relative to the untreated control
[23] = 504 h, read-out: Ave. AMATA, percent reduction in plant size relative to the untreated control

Question: Which results are given for `N/C(=N\OC(=O)COc1ccc(Cl)cc1Cl)c1ccco1` [Compound A5]?
Answer: pest or weed control at 280 g/ha ([1]; 168 h, 280 g ae/ha, 7 DAA, read-out: Ave. ERICA, percent reduction in plant size relative to the untreated control): 70%; pest or weed control at 560 g/ha ([1]; 168 h, 560 g ae/ha, 7 DAA, read-out: Ave. ERICA, percent reduction in plant size relative to the untreated control): 73%; pest or weed control at 280 g/ha ([1]; 336 h, 280 g ae/ha, 14 DAA, percent reduction in plant size relative to untreated control, read-out: Ave. ERICA): 83%; pest or weed control at 560 g/ha ([1]; 336 h, 560 g ae/ha, 14 DAA, percent reduction in plant size relative to untreated control, read-out: Ave. ERICA): 85%; pest or weed control at 280 g/ha ([1]; 504 h, 280 g ae/ha, 21 DAA, percent reduction in plant size relative to untreated control, read-out: Ave. ERICA): 88%; pest or weed control at 560 g/ha ([1]; 504 h, 560 g ae/ha, 21 DAA, percent reduction in plant size relative to untreated control, read-out: Ave. ERICA): 88%; pest or weed control at 280 g/ha ([2]; 168 h, 280 g ae/ha, 7 DAA): 60%; pest or weed control at 560 g/ha ([2]; 168 h, 560 g ae/ha, 7 DAA): 61%; pest or weed control at 280 g/ha ([3]; 168 h, 280 g ae/ha, 7 DAA, read-out: AVE. ABUTH, percent reduction in plant size relative to the untreated control): 38%; pest or weed control at 560 g/ha ([3]; 168 h, 560 g ae/ha, 7 DAA, read-out: AVE. ABUTH, percent reduction in plant size relative to the untreated control): 43%; pest or weed control at 280 g/ha ([3]; 336 h, 280 g ae/ha, 14 DAA, percent reduction in plant size relative to untreated control, read-out: AVE. ABUTH): 40%; pest or weed control at 560 g/ha ([3]; 336 h, 560 g ae/ha, 14 DAA, percent reduction in plant size relative to untreated control, read-out: AVE. ABUTH): 53%; pest or weed control at 280 g/ha ([3]; 504 h, 280 g ae/ha, 21 DAA, percent reduction in plant size relative to untreated control, read-out: AVE. ABUTH): 30%; pest or weed control at 560 g/ha ([3]; 504 h, 560 g ae/ha, 21 DAA, percent reduction in plant size relative to untreated control, read-out: AVE. ABUTH): 50%; pest or weed control at 280 g/ha ([4]; 168 h, 280 g ae/ha, 7 DAA, read-out: AVE. AMBEL, percent reduction in plant size relative to the untreated control): 60%; pest or weed control at 560 g/ha ([4]; 168 h, 560 g ae/ha, 7 DAA, read-out: AVE. AMBEL, percent reduction in plant size relative to the untreated control): 60%; pest or weed control at 280 g/ha ([4]; 336 h, 280 g ae/ha, 14 DAA, percent reduction in plant size relative to untreated control, read-out: AVE. AMBEL): 78%; pest or weed control at 560 g/ha ([4]; 336 h, 560 g ae/ha, 14 DAA, percent reduction in plant size relative to untreated control, read-out: AVE. AMBEL): 85%; pest or weed control at 280 g/ha ([4]; 504 h, 280 g ae/ha, 21 DAA, percent reduction in plant size relative to untreated control, read-out: AVE. AMBEL): 78%; pest or weed control at 560 g/ha ([4]; 504 h, 560 g ae/ha, 21 DAA, percent reduction in plant size relative to untreated control, read-out: AVE. AMBEL): 85%; pest or weed control at 280 g/ha ([5]; 168 h, 280 g ae/ha, 7 DAA, read-out: Ave. CHEAL, percent reduction in plant size relative to the untreated control): 60%; pest or weed control at 560 g/ha ([5]; 168 h, 560 g ae/ha, 7 DAA, read-out: Ave. CHEAL, percent reduction in plant size relative to the untreated control): 63%; pest or weed control at 280 g/ha ([5]; 336 h, 280 g ae/ha, 14 DAA, percent reduction in plant size relative to untreated control, read-out: Ave. CHEAL): 68%; pest or weed control at 560 g/ha ([5]; 336 h, 560 g ae/ha, 14 DAA, percent reduction in plant size relative to untreated control, read-out: Ave. CHEAL): 63%; pest or weed control at 280 g/ha ([5]; 504 h, 280 g ae/ha, 21 DAA, percent reduction in plant size relative to untreated control, read-out: Ave. CHEAL): 68%; pest or weed control at 560 g/ha ([5]; 504 h, 560 g ae/ha, 21 DAA, percent reduction in plant size relative to untreated control, read-out: Ave. CHEAL): 65%; TGA Data (rate of weight loss, volatility) [6]: 1.2 µg/min; pest or weed control at 280 g/ha ([7]; 168 h, 280 g ae/ha, 7 DAA, read-out: Ave. AMATA, percent reduction in plant size relative to the untreated control): 70%; pest or weed control at 560 g/ha ([7]; 168 h, 560 g ae/ha, 7 DAA, read-out: Ave. AMATA, percent reduction in plant size relative to the untreated control): 65%; pest or weed control at 280 g/ha ([7]; 336 h, 280 g ae/ha, 14 DAA, percent reduction in plant size relative to untreated control, read-out: Ave. AMATA): 73%; pest or weed control at 560 g/ha ([7]; 336 h, 560 g ae/ha, 14 DAA, percent reduction in plant size relative to untreated control, read-out: Ave. AMATA): 68%; pest or weed control at 280 g/ha ([7]; 504 h, 280 g ae/ha, 21 DAA, percent reduction in plant size relative to untreated control, read-out: Ave. AMATA): 73%; pest or weed control at 560 g/ha ([7]; 504 h, 560 g ae/ha, 21 DAA, percent reduction in plant size relative to untreated control, read-out: Ave. AMATA): 70%; pest or weed control at 280 g/ha ([8]; 336 h, 14 DAA): 68%; pest or weed control at 560 g/ha ([8]; 336 h, 14 DAA): 71%; pest or weed control at 280 g/ha ([8]; 504 h, 21 DAA): 67%; pest or weed control at 560 g/ha ([8]; 504 h, 21 DAA): 72%

Question: Which pest or weed control at 280 g/ha [1, 9] does the source give for `O=C(COc1ccc(Cl)cc1Cl)Nc1ccncc1` [Compound D1, 2-(2,4-Dichlorophenoxy)-N-(pyridin-4-yl)acetamide] here?
Answer: 70%

Question: What about the pest or weed control at 560 g/ha [1, 9] of the same molecule?
Answer: 65%

Question: And the pest or weed control at 280 g/ha [1, 10]?
Answer: 88%

Question: What about the pest or weed control at 560 g/ha [1, 10] of the same molecule?
Answer: 90%

Question: What about the pest or weed control at 280 g/ha [1, 11] of the same molecule?
Answer: 99%

Question: And the pest or weed control at 560 g/ha [1, 11]?
Answer: 97%

Question: And the pest or weed control at 280 g/ha ([2]; 168 h)?
Answer: 69%

Question: What about the pest or weed control at 560 g/ha ([2]; 168 h) of the same molecule?
Answer: 72%

Question: What about the pest or weed control at 280 g/ha ([2]; 336 h) of the same molecule?
Answer: 83%

Question: What about the pest or weed control at 560 g/ha ([2]; 336 h) of the same molecule?
Answer: 87%

Question: And the pest or weed control at 280 g/ha ([2]; 504 h)?
Answer: 89%

Question: And the pest or weed control at 560 g/ha ([2]; 504 h)?
Answer: 93%

Question: What about the pest or weed control at 280 g/ha [3, 12] of the same molecule?
Answer: 78%

Question: What about the pest or weed control at 560 g/ha [3, 12] of the same molecule?
Answer: 78%

Question: And the pest or weed control at 280 g/ha [3, 13]?
Answer: 88%

Question: What about the pest or weed control at 560 g/ha [3, 13] of the same molecule?
Answer: 80%

Question: And the pest or weed control at 280 g/ha [3, 14]?
Answer: 93%

Question: What about the pest or weed control at 560 g/ha [3, 14] of the same molecule?
Answer: 87%

Question: And the pest or weed control at 280 g/ha [4, 15]?
Answer: 60%

Question: What about the pest or weed control at 560 g/ha [4, 15] of the same molecule?
Answer: 65%

Question: And the pest or weed control at 280 g/ha [4, 16]?
Answer: 89%

Question: What about the pest or weed control at 560 g/ha [4, 16] of the same molecule?
Answer: 94%

Question: What about the pest or weed control at 280 g/ha [4, 17] of the same molecule?
Answer: 78%

Question: What about the pest or weed control at 560 g/ha [4, 17] of the same molecule?
Answer: 99%

Question: And the pest or weed control at 280 g/ha [5, 18]?
Answer: 68%

Question: And the pest or weed control at 560 g/ha [5, 18]?
Answer: 75%

Question: And the pest or weed control at 280 g/ha [5, 19]?
Answer: 78%

Question: And the pest or weed control at 560 g/ha [5, 19]?
Answer: 85%

Question: What about the pest or weed control at 280 g/ha [5, 20] of the same molecule?
Answer: 97%

Question: And the pest or weed control at 560 g/ha [5, 20]?
Answer: 93%

Question: And the “TGA Data (rate of weight loss, volatility)” value [6]?
Answer: 0.05 µg/min

Question: And the pest or weed control at 280 g/ha [7, 21]?
Answer: 68%

Question: What about the pest or weed control at 560 g/ha [7, 21] of the same molecule?
Answer: 78%

Question: And the pest or weed control at 280 g/ha [7, 22]?
Answer: 75%

Question: And the pest or weed control at 560 g/ha [7, 22]?
Answer: 85%

Question: What about the pest or weed control at 280 g/ha [7, 23] of the same molecule?
Answer: 78%

Question: And the pest or weed control at 560 g/ha [7, 23]?
Answer: 90%

From US20260042731A1, “(2,4-DICHLOROPHENOXY)ACETIC ACID ANALOGS” (CORTEVA AGRISCIENCE LLC, priority 2022, published 2026)
